The numbers were not newly measured in patent US11174289B1, “Artificial intelligence designed antimicrobial peptides” (International Business Machines Corporation, priority 2020, dated 2021), which cites them from elsewhere.

For data set [1] the following is noted: comparison value for the clinically used drug.
For data set [2] the following is noted: no significant antimicrobial activity; strain not given.

With polymyxin B, the LD50 in data set [1] is 20.5 mg/kg.

Regarding FPVTWPTKWWKG [PuroB], the MIC in data set [2] is above 200 µg/mL.
